Results published in US20180022780A1, “STABILIZATION ADRENOMEDULLIN DERIVATIVES AND USE THEREOF” (priority 2014, published 2018).
Bridge positions count the residues as written; N and C are the ends. Square brackets hold non-standard residues; d marks the D form. Peptide text beside a SMILES is read from it. * marks the point of attachment. Palmitoyl = CCCCCCCCCCCCCCCC(=O)*; NMeK = CN[C@@H](CCCCN)C(=O)O; Dab = NCC[C@H](N)C(=O)O; Dap = NC[C@H](N)C(=O)O

Biological target: T1, CLR fused to EYFP and RAMP2 fused to ECFP (Homo sapiens, UniProt O60895+Q16602)
T1 construct: EYFP; ECFP; expressed in transfected cells; host or cells: HEK-293 cells, transient co-transfection
Test: cAMP assay (CRE luciferase reporter, HEK-293 cells transiently co-transfected with CLR and RAMP2)
Format: cell-based
Conditions: Table 2, cAMP assay; HEK-293, CLR/RAMP2, CRE luciferase, 3 h stimulation, normalized to [G^14]ADM(14-52)
Procedure: HEK-293 cells (human embryonic kidney cells) were cultured in Ham's F-12/DMEM (1/1; v/v) containing 15% FCS under humidified atmosphere at 37° C. and 5% CO2 in 75 cm^2 cell culture flasks.
Cells were cultured in 75 cm^2 flasks to 70-80% confluency. 45 μl Metafectene® Pro was diluted in 900 μl Ham's F-12/DMEM (1/1; v/v) and incubated for 20 min at room temperature. 9000 ng plasmid containing DNA of CLR fused to EYFP and 3000 ng plasmid containing DNA of RAMP2 fused to ECFP were dissolved in 900 μl Ham's F-12/DMEM (1/1; v/v). The plasmid solution was mixed with the Metafectene® Pro solution and incubated for 25 min at room temperature. Medium was removed from the cells and replaced by 6 ml Ham's F-12/DMEM (1/1; v/v) containing 15% FCS. After addition of transfection solution the cells were incubated for 3 h under humidified atmosphere at 37° C. and 5% CO2.
For the second transfection 45 μl Metafectene® Pro was diluted in 900 μl Ham's F-12/DMEM (1/1; v/v) and incubated for 20 min at room temperature. 12000 ng of pGL4.29[luc2P/CRE/Hygro] plasmid containing DNA for the luciferase reporter gene luc2P (with CRE promotor region) were dissolved in 900 μl Ham's F-12/DMEM (1/1; v/v). The plasmid solution was mixed with the Metafectene® Pro solution and incubated for 25 min at room temperature. Medium was removed from the cells and replaced by 6 ml Ham's F-12/DMEM (1/1; v/v) containing 15% FCS. After addition of transfection solution the cells were incubated under humidified atmosphere at 37° C. and 5% CO2 over night.
For the coating of 96-well-plates 50 μl of a Poly-D-Lysine solution (1 ml stock solution of Poly-D-Lysin-hydrobromid/10 ml DPBS) were pipetted in each well and incubated for 40 min. After removal of the Poly-D-Lysine each well was washed with 50 μl DPBS. Transiently transfected cells were detached from the cell culture flask by removal of the medium, twofold washing with 5 m1 DPBS and resuspending in 13 ml Ham's F-12/DMEM (1/1; v/v) containing 15% FCS. 90000 to 120000 cells in 150 μl Ham's F-12/DMEM (1/1; v/v) containing 15% FCS were seeded per well and the plates were incubated under humidified atmosphere at 37° C. and 5% CO2 over night.
For each ligand a serial dilution giving eight different concentrations was prepared using Ham's F-12/DMEM (1/1; v/v). Before stimulation the medium on the cells was replaced by 100 μl Ham's F-12/DMEM (1/1; v/v) and the plates were incubated for 1 h under humidified atmosphere at 37° C. and 5% CO2. For stimulation the medium was removed again and the cells were incubated for 3 h in 80 μl of ligand-solution under humidified atmosphere at 37° C. and 5% CO2. In addition 80 μl of a 5 μM forskolin solution (in Ham's F-12/DMEM (1/1; v/v)) was used as a positive control and 80 μl of Ham's F-12/DMEM (1/1; v/v) as a negative control. Each concentration and the controls were tested as triplicates.
After 3 h of stimulation, the solutions were removed and the cells were washed with 50 μl of Ham's F-12/DMEM (1/1; v/v) per well. After 10 min incubation in 30 μl of Ham's F-12/DMEM (1/1; v/v) at room temperature, 30 μl of luciferase-solution (ONE-Glo™ Luciferase Assay System) was added and the luminescence was directly measured using an Infinite M200 (Tecan).
Data analysis of the luminescence measurement was carried out with GraphPad Prism 5. Therefore the measured luminescence values of each plate were first corrected on the base of the respective average of forskolin stimulation. Afterwards they were normalized to [G^14]ADM(14-52) which was used as standard peptide in every assay. After correction and normalization data was analysed using non-linear regression giving dose-response curves for each tested ligand.

T1 sequence (Q16602 23-461): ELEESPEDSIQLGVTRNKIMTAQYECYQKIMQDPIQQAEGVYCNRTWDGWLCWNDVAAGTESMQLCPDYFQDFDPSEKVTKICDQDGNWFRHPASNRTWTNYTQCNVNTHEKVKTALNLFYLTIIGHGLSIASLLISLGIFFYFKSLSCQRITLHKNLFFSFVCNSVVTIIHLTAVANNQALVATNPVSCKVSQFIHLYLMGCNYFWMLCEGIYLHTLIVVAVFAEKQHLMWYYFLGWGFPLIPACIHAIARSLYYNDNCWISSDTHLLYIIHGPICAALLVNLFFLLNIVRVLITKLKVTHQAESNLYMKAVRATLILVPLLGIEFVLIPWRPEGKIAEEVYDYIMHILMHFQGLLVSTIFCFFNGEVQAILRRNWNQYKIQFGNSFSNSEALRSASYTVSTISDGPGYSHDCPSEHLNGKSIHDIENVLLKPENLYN
T1 sequence (O60895 43-175): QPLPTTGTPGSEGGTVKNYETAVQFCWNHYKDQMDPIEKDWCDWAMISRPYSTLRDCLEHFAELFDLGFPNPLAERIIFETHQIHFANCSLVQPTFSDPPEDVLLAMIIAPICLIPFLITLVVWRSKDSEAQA

Row | SMILES | EC50 [nM]
1 | CCCCCCCCCCCCCCCC(=O)NCCCC[C@H](N)C(=O)NCC(=O)N[C@H]1CNC(=O)CC[C@@H](C(=O)N[C@H](C(=O)N[C@H](C(=O)N[C@@H](CCC(N)=O)C(=O)N[C@@H](CCCCN)C(=O)N[C@@H](CC(C)C)C(=O)N[C@@H](C)C(=O)N[C@@H](Cc2c[nH]cn2)C(=O)N[C@@H](CCC(N)=O)C(=O)N[C@H](C(=O)N[C@@H](Cc2ccc(O)cc2)C(=O)N[C@@H](CCC(N)=O)C(=O)N[C@@H](Cc2ccccc2)C(=O)N[C@H](C(=O)N[C@@H](CC(=O)O)C(=O)N[C@@H](CCCCN)C(=O)N[C@@H](CC(=O)O)C(=O)N[C@@H](CCCCN)C(=O)N[C@@H](CC(=O)O)C(=O)N[C@@H](CC(N)=O)C(=O)N[C@H](C(=O)N[C@@H](C)C(=O)N2CCC[C@H]2C(=O)N[C@@H](CCCNC(=N)N)C(=O)N[C@@H](CO)C(=O)N(C)[C@@H](CCCCN)C(=O)N[C@H](C(=O)N[C@@H](CO)C(=O)N2CCC[C@H]2C(=O)N[C@@H](CCC(N)=O)C(=O)NCC(=O)N[C@@H](Cc2ccc(O)cc2)C(N)=O)[C@@H](C)CC)C(C)C)[C@@H](C)O)[C@@H](C)CC)C(C)C)[C@@H](C)O)NC(=O)[C@H]([C@@H](C)O)NC(=O)CNC(=O)[C@H](Cc2ccccc2)NC(=O)[C@H](CCCNC(=N)N)NC1=O [Example 27, ((3S,9S,12S,15S,21S)-15-(2-((S)-2-amino-6-palmitamidohexanamido)acetamido)-9-benzyl-12-(3-guanidinopropyl)-3-((R)-1-hydroxyethyl)-2,5,8,11,14,18-hexaoxo-1,4,7,10,13,17-hexaazacyclohenicosane-21-carbonyl)-L-threonyl-[N-Me-K^46]ADM(22-52)] (H-K(Palmitoyl)G[Dap]RFGTETVQKLAHQIYQFTDKDKDNVAPRS[NMeK]ISPQGY-NH2; lactam 3-8) | 3.4
2 | CC[C@H](C)[C@H](NC(=O)[C@H](CCC(N)=O)NC(=O)[C@H](Cc1c[nH]cn1)NC(=O)[C@H](C)NC(=O)[C@H](CC(C)C)NC(=O)[C@H](CCCCN)NC(=O)[C@H](CCC(N)=O)NC(=O)[C@@H](NC(=O)[C@@H](NC(=O)[C@@H]1CCC(=O)NC[C@H](NC(=O)CNC(=O)CN)C(=O)N[C@@H](CCCNC(=N)N)C(=O)N[C@@H](Cc2ccccc2)C(=O)NCC(=O)N[C@@H]([C@@H](C)O)C(=O)N1)[C@@H](C)O)C(C)C)C(=O)N[C@@H](Cc1ccc(O)cc1)C(=O)N[C@@H](CCC(N)=O)C(=O)N[C@@H](Cc1ccccc1)C(=O)N[C@H](C(=O)N[C@@H](CC(=O)O)C(=O)N[C@@H](CCCCN)C(=O)N[C@@H](CC(=O)O)C(=O)N[C@@H](CCCCN)C(=O)N[C@@H](CC(=O)O)C(=O)N[C@@H](CC(N)=O)C(=O)N[C@H](C(=O)N[C@@H](C)C(=O)N1CCC[C@H]1C(=O)N[C@@H](CCCNC(=N)N)C(=O)N[C@@H](CO)C(=O)N[C@@H](CCCCN)C(=O)N[C@H](C(=O)N[C@@H](CO)C(=O)N1CCC[C@H]1C(=O)N[C@@H](CCC(N)=O)C(=O)NCC(=O)N[C@@H](Cc1ccc(O)cc1)C(N)=O)[C@@H](C)CC)C(C)C)[C@@H](C)O [Example 7, ((3S,9S,12S,15S,21S)-15-(2-(2-aminoacetamido)acetamido)-9-benzyl-12-(3-guanidinopropyl)-3-((R)-1-hydroxyethyl)-2,5,8,11,14,18-hexaoxo-1,4,7,10,13,17-hexaazacyclohenicosane-21-carbonyl)-L-threonyl-ADM(22-52)] (H-GG[Dap]RFGTETVQKLAHQIYQFTDKDKDNVAPRSKISPQGY-NH2; lactam 3-8) | 2.9
3 | CCCCCCCCCCCCCCCC(=O)NCCCC[C@H](N)C(=O)NCC(=O)N[C@H]1CNC(=O)CC[C@@H](C(=O)N[C@H](C(=O)N[C@H](C(=O)N[C@@H](CCC(N)=O)C(=O)N[C@@H](CCCCN)C(=O)N[C@@H](CC(C)C)C(=O)N[C@@H](C)C(=O)N[C@@H](Cc2c[nH]cn2)C(=O)N[C@@H](CCC(N)=O)C(=O)N[C@H](C(=O)N[C@@H](Cc2ccc(O)cc2)C(=O)N[C@@H](CCC(N)=O)C(=O)N[C@@H](Cc2ccccc2)C(=O)N[C@H](C(=O)N[C@@H](CC(=O)O)C(=O)N[C@@H](CCCCN)C(=O)N[C@@H](CC(=O)O)C(=O)N[C@@H](CCCCN)C(=O)N[C@@H](CC(=O)O)C(=O)N[C@@H](CC(N)=O)C(=O)N[C@H](C(=O)N[C@@H](C)C(=O)N2CCC[C@H]2C(=O)N[C@@H](CCCNC(=N)N)C(=O)N[C@@H](CO)C(=O)N[C@@H](CCCCN)C(=O)N[C@H](C(=O)N[C@@H](CO)C(=O)N2CCC[C@H]2C(=O)N[C@@H](CCC(N)=O)C(=O)NCC(=O)N[C@@H](Cc2ccc(O)cc2)C(N)=O)[C@@H](C)CC)C(C)C)[C@@H](C)O)[C@@H](C)CC)C(C)C)[C@@H](C)O)NC(=O)[C@H]([C@@H](C)O)NC(=O)CNC(=O)[C@H](Cc2ccccc2)NC(=O)[C@H](CCCNC(=N)N)NC1=O [Example 18, ((3S,9S,12S,15S,21S)-15-(2-((S)-2-amino-6-palmitamidohexanamido)acetamido)-9-benzyl-12-(3-guanidinopropyl)-3-((R)-1-hydroxyethyl)-2,5,8,11,14,18-hexaoxo-1,4,7,10,13,17-hexaazacyclohenicosane-21-carbonyl)-L-threonyl-ADM(22-52)] (H-K(Palmitoyl)G[Dap]RFGTETVQKLAHQIYQFTDKDKDNVAPRSKISPQGY-NH2; lactam 3-8) | 2
4 | CC[C@H](C)[C@H](NC(=O)[C@H](CCC(N)=O)NC(=O)[C@H](Cc1c[nH]cn1)NC(=O)[C@H](C)NC(=O)[C@H](CC(C)C)NC(=O)[C@H](CCCCN)NC(=O)[C@H](CCC(N)=O)NC(=O)[C@@H](NC(=O)[C@@H](NC(=O)[C@@H]1CCNC(=O)C[C@H](NC(=O)CNC(=O)CN)C(=O)N[C@@H](CCCNC(=N)N)C(=O)N[C@@H](Cc2ccccc2)C(=O)NCC(=O)N[C@@H]([C@@H](C)O)C(=O)N1)[C@@H](C)O)C(C)C)C(=O)N[C@@H](Cc1ccc(O)cc1)C(=O)N[C@@H](CCC(N)=O)C(=O)N[C@@H](Cc1ccccc1)C(=O)N[C@H](C(=O)N[C@@H](CC(=O)O)C(=O)N[C@@H](CCCCN)C(=O)N[C@@H](CC(=O)O)C(=O)N[C@@H](CCCCN)C(=O)N[C@@H](CC(=O)O)C(=O)N[C@@H](CC(N)=O)C(=O)N[C@H](C(=O)N[C@@H](C)C(=O)N1CCC[C@H]1C(=O)N[C@@H](CCCNC(=N)N)C(=O)N[C@@H](CO)C(=O)N[C@@H](CCCCN)C(=O)N[C@H](C(=O)N[C@@H](CO)C(=O)N1CCC[C@H]1C(=O)N[C@@H](CCC(N)=O)C(=O)NCC(=O)N[C@@H](Cc1ccc(O)cc1)C(N)=O)[C@@H](C)CC)C(C)C)[C@@H](C)O [Example 4, ((2S,5S,11S,14S,20S)-20-(2-(2-aminoacetamido)acetamido)-5-benzyl-2-(3-guanidinopropyl)-11-((R)-1-hydroxyethyl)-3,6,9,12,18,21-hexaoxo-1,4,7,10,13,17-hexaazacyclohenicosane-14-carbonyl)-L-threonyl-ADM(22-52)] (H-GGDRFGT[Dab]TVQKLAHQIYQFTDKDKDNVAPRSKISPQGY-NH2; lactam 3-8) | 21
